The text below walks through data of patent US7312358B2, “Pharmaceutically active sulfanilide derivatives” (Laboratoires Serono SA, priority 2000, dated 2007).

One series deals with T1, hOT-R (Homo sapiens, UniProt P30559).
T1 construct: expressed in transfected cells; host or cells: HEK (Human Embryonic Kidney) cells
T1 sequence (P30559 1-389): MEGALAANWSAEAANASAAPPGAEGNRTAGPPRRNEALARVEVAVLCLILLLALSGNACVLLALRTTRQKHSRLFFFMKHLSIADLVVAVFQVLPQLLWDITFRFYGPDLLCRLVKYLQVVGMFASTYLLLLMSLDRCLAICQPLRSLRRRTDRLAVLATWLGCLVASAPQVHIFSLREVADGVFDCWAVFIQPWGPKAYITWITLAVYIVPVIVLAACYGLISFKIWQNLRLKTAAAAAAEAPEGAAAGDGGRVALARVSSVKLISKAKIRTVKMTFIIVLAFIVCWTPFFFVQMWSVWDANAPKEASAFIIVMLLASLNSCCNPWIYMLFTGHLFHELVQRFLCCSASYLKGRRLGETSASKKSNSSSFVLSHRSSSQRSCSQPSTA
The series is described as follows: Inhibition of oxytocin mediated Ca2+-mobilization by FLIPR (HEK cells). Type of series: cell-based. The following applies: fluo-4, OT 40 nM. An excerpt: c) Functional Assay No. 1: Inhibition of Oxytocitn Mediated Ca^2+-Mobilization by FLIPR (Fluorescent Imaging Plate Reader)
(§1) FLIPR is a machine for fluorescence imaging using a laser that is capable of illuminating a 96-well plate and a means of simultaneously reading each well thus enabling rapid measurements on a large number of samples.
This assay intends to show the inhibition of the OT/OT-R mediated calcium mobilisation—being necessary to cause uterine contractions—by using test compounds of formula (I).
Preparing the plates: FLIPR-plates were pre-coated with PLL (Poly-L-Lysine) 10 μg/ml+0.1% gelatine to attach the HEK (Human Embryonic Kidney) cells for 30 min up to 2 days at 37° C. The cells were plated out into 96-well plates (60000 cells/well).
Labelling with fluo-4: […] fluo-4 (fluorescent marker) were dissolved in 20 μl pluronic acid (20% in DMSO). The dissolved fluo-4 was then diluted in 10 ml DMEM (Dubecco's Minimal Essential Medium-F12 medium without FCS (Fetal Calf Serum). The medium was removed from the plates, followed by one wash with DNEM-F12 medium. Now, 100 μl of the DMEM-F12 medium containing fluo-4 were added and the cells incubated for 1.5-2 h (HEK-cells). The cells now contain the fluorescent marker.
(§2) Buffer: 145 mM NaCl, 5 mM KCl, 1 mM MgCl2, 10 mM Hepes, 10 mM Glucose, EGTA (Ethylene-bis oxyethylene nitrilo tetraacetic acid). Adjust to pH 7.4.
(§3) Performance of the assay: A minimum of 80 μl/well of antagonists (5×) in the above buffer (1×) were prepared (96-well plates). The antagonists were added to the well-plates at different concentrations (30 μM, 10 μM, 1 μM, 300 nM, 100 nM, 10 nM, 1 nM, 100 pM, 10 pM).
OT is added at a concentration of 40 nM.
(§4) The fluorescent marker being sensitive to the amount of Ca^2+ mobilized within the cell may be quantified by the FLIPR machine.
The activities of the sulfanilide derivatives according to formula I were assessed using the above described in vitro biological assay. The values refer to the capacity of the example compounds according to formula I to effectively antagonize oxytocin-induced intracellular Ca^2+-mobilization mediated by the oxytocin receptor.

A further series has as its target T2, ratOT-R (Rattus norvegicus, UniProt P70536).
T2 construct: expressed in transfected cells; host or cells: HEK/EBNA cells
T2 sequence (P70536 1-388): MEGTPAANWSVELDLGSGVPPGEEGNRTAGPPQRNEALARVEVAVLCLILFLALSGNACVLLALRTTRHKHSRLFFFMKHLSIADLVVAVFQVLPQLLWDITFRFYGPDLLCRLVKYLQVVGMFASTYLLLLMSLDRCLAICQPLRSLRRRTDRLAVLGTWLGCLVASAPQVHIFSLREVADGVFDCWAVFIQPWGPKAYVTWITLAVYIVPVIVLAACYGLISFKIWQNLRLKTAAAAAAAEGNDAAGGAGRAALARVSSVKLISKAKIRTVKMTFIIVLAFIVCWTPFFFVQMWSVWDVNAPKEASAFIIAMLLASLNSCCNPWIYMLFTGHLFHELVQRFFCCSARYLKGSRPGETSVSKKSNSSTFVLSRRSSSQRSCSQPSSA
Kind of series: Inhibition of IP3 (inositol tri-phosphate)-synthesis in HEK/EBNA-OTR cells. Type of series: cell-based. The following applies: [3H]-inositol, oxytocin 10 nM. As to the method:
e) Functional Assay No. 2: Inhibition of IP3 (Inositol Tri-Phosphate)-Synthesis in HEK/EBNA-OTR Cells
This assay intends to show the inhibition of the OT/OT-R mediated IP3 synthesis—being necessary to cause uterine contractions—by using test compounds of formula (I).
Stimulation of the cells: IIEK/EBNA OTR(rat or human) cells were plated out into costar 12-well plates, and equilibrated for 15-24 h with [^3H]-inositol radiolabel in medium without inositol supplement, with 1% FCS (0.5 ml/well). 4 μCi/ml were used. After this, the medium containing the label was aspirated. Then was added DMEM (without FCS, inositol), 20 mM Hepes (4-(2-hydroxyethyl)-1-piperazine-ethane-sulphonic acid), 1 mg/ml BSA containing 10 mM LiCl (freshly prepared), for […] at 37° C. The agonist (i.e. oxytocin used at a concentration of 10 nM) and the antagonists (i.e. the tests compounds of formula (1) used in a concentration of 10 μM, 1 μM, 300 nM, 100 nM, 10 nM, 1 nM, 100 pM, 10 pM, 3 pM) were added for the time required (15-45 min), followed by aspiration of the medium. Due to the […] of the OT receptor, the radiolabeled inositol is phosphorylated to yield IP3, the amount of the radiolabeled IP3 may be determined through the ensuing work-up. The reaction was stopped with 1 ml STOP-solution (i.e. 0.4 M perchloric acid), and let sit for 5-10 min at Room Temperature. Then, 0.8 ml were transferred into tubes containing 0.4 ml of neutralizing solution (0.72 M KOH/0.6M KHCO3), and the tubes vortexed and kept in the cold at least for 2 h.
Separation of IP's: The samples were spun in a table top centrifuge at 3000-4000 rpm for 15 min. 1 ml of the supernatant was transferred to new tubes containing 2.5 ml H2O. Packed resin (0.8 ml) was equilibrated with 20 ml H2O, and the whole samples poured onto the chromatography columns, thus separating the mixture. To discard free inositol, two washes with 10 ml H2O were carried out.
Elution of total IP's: The elution was achieved using 3 ml 1M ammonium formate/0.1M formic acid. The eluant was collected in scintillation counting tubes, followed by addition of 7 ml of scintillation liquid. The amount of IP3 is determined by a scintillating counter.
The activities of the sulfanilide derivatives claimed in the formula I were assessed using the above described in vitro biological assay. The values refer to the capacity of the example compounds according to formula I to effectively antagonize oxytocin-induced IP3-synthesis mediated by the oxytocin receptor.

The target of series [1] is T3, hV1a (Homo sapiens, UniProt P37288). The series is described as follows: Inhibition of vasopressin-mediated Ca2+-mobilization by FLIPR (CHO cells expressing hV1a). It counts as cell-based. The note with it: fluo-4, AVP 40 nM. Also on record: expressed in transfected cells; host or cells: CHO cells.
Source text: d) Functional Assay No. 1: Inhibition of Vasopressin-Mediated Ca^2+-mobilization by FLIPR (Fluorescent Imaging Plate Reader)
as §1
This assay intends to show the inhibition of the AVP/V1a-R mediated calcium mobilisation—being necessary to cause uterine contractions—by using test compounds of formula (1).
Preparing the plates: FLIPR-plates were pre-coated with PLL (Poly-L-Lysine) 10 μg/ml+0.1% gelatine to attach the CHO cells (expessing hV1a) for 30 min up to 2 days at 37° C. The cells were plated out into 96-well plates (60000 cells/well).
Labelling with fluo-4: 50 μg fluo-4 (fluorescent marker) were dissolved in 20 μl pluronic acid (20% in DMSO). The dissolved fluo-4 was then diluted in 10 ml DMEM (Dubecco's […] Medium-F12 medium without FCS (Fetal Calf Serum). The medium was removed from the plates, followed by one wash with DMEM-F12 medium. Now, 100 μl of the DMEM-F12 medium containing fluo-4 were added and the cells incubated for 1-1.5 h (CHO-cells). The cells now contain the fluorescent marker.
as §2, §3
AVP is added at a concentration of 40 nM.
as §4
The activities of the sulfanilide derivatives according to formula I were assessed using the above described in vitro biological assay. The values refer to the capacity of the example compounds according to formula I to effectively antagonize AVP-induced intracellular Ca^2+-mobilization mediated by the VIa-receptor.

In series [2] the target is T3, hV1a. Kind of series: In vitro competition binding assay on hV1a receptor with scintillating proximity assay. Also on record: expressed in transfected cells; host or cells: CHO cells (membranes). The following applies: membranes from CHO cells expressing hV1a receptor; radiolabel [125I]-LVA; SPA; read-out: Binding Affinity Human V1a Ki. As to the method:
b) In Vitro Competition Binding Assay on hV1a Receptor with Scintillating Proximity Assay
This assays allows to determine the affinity of the test compounds for the V1a receptor. Membranes from CHO cells expressing the hV1a receptor were resuspended in buffer containing 50 mM Tris-HCl, pH 7.4, 5 mM MgCl2 and 0.1% BSA (w/v). The membranes (5-10 μg) were mixed with 0.2 mg wheat-germ aglutinin (WGA) SPA bead (type A) and 0.03 nM of the radiolabel [^125I]-LVA (LVA being Linear Vasopressin Antagonist and is an analogue of AVP for competition binding experiments). Non-specific binding was determined in the presence of 1 μM AVP. The total assay volume was 100 μl. The plates (Corning 0 NBS plate) were incubated at room temperature for 2 hours and counted on a Mibrobeta plate counter. The tests compounds were used in concentrations of 30 μM, 10 μM, 1 μM, 300 nM, 100 nM, 10 nM, 1 nM, 100 pM, 10 pM. The competition binding data were analysed using the iterative, nonlinear, curve-fitting program, Graph pad “Prism”.
The binding affinities to the Via receptor of the sulfanilide derivatives claimed in the formula I were assessed using the above described in vitro biological assay. The values refer to the binding affinity (IC50; HM) of the example compounds according to formula I to the V1a receptor. From the values shown in Table 1 it can be derived that said test compounds according to formula I do show a significant binding to the Via receptor.

Another series addresses T4, hOT receptor (Homo sapiens, UniProt P30559).
T4 construct: expressed in transfected cells; host or cells: HEK293EBNA cells (membranes)
T4 sequence (P30559 1-389): T1 sequence (P30559 1-389)
Kind of series: In vitro competition binding assay on hOT receptor with scintillating proximity assay. The following applies: membranes from HEK293EBNA cells expressing hOT receptor; radiolabel [125I]-OVTA; SPA; read-out: Binding Affinity Human OT-R Ki. Put shortly:
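SPA competition binding using HEK293EBNA membranes expressing hOT receptor (2-4 μg) with WGA beads and 0.2 nM [125I]-OVTA in 50 mM Tris-HCl pH 7.4, 5 mM MgCl2, 0.1% BSA, 30 min at room temperature. Non-specific binding with 1 μM oxytocin; compounds at 10 pM–30 μM; IC50 by nonlinear curve fitting.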

T3 sequence (P37288 whole entry): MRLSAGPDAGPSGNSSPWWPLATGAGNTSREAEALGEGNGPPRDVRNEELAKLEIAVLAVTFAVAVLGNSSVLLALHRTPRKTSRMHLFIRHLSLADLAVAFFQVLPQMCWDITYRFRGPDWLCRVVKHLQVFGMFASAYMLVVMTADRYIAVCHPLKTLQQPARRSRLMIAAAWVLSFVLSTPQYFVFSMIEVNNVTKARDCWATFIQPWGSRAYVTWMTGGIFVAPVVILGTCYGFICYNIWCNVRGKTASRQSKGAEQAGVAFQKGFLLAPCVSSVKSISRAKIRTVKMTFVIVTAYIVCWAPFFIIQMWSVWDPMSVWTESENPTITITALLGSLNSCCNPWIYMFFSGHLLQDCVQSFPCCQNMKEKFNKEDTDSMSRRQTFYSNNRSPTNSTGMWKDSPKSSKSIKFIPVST

For `Cc1c(Cl)cccc1NC(=O)CN(c1ccc(Br)cc1)S(=O)(=O)c1ccccc1` [2-[Benzenesulfonyl-(4-bromo-phenyl)-amino]-N-(3-chloro-2-methyl-phenyl)-acetamide], the figures for the half-inhibitory concentration (IC50) on hOT-R and on ratOT-R were 353 nM and 110 nM, respectively.
Consider `Cc1c(Cl)cccc1NC(=O)CN(c1ccc(Cl)cc1)S(=O)(=O)c1ccccc1` [2-[Benzenesulfonyl-(4-chloro-phenyl)-amino]-N-(3-chloro-2-methyl-phenyl)-acetamide], for which the results for the IC50 on hOT-R and against ratOT-R were 443 nM and 320 nM, respectively.
As for `COc1ccc(N(CC(=O)Nc2ccc(Cl)cc2C)S(=O)(=O)c2ccccc2)cc1` [2-[Benzenesulfonyl-(4-methoxy-phenyl)-amino]-N-(4-chloro-2-methyl-phenyl)-acetamide], half-maximal inhibition against hV1a [1] (IC50) required 90 nM.
Take `COc1ccc(S(=O)(=O)N(CC(=O)N/N=C/c2ccccc2O)c2ccc(Cl)cc2)cc1OC` [Example 37, N-(4-chlorophenyl)-N-{2-[(2E)-2-(2-hydroxybenzylidene)hydrazino]-2-oxoethyl}-3,4-dimethoxybenzenesulfonamide]: the melting point (in general, the temperature, or range, at which the solid turns liquid) is 188 to 189 °C. On hV1a [2], the Ki (usually the equilibrium dissociation constant of an inhibitor or competing ligand from its target) turned out to be 550 nM.
As for `CCOc1ccc(S(=O)(=O)N(CC(=O)N2CCc3ccccc3C2)c2ccc(C)cc2)cc1` [N-[2-(3,4-Dihydro-1H-isoquinolin-2-yl)-2-oxo-ethyl]-4-ethoxy-N-p-tolyl-benzenesulfonamide], the values for the Ki on hV1a [2] and at hOT receptor were 375 nM and 246 nM, respectively.
For `O=C(CN(c1ccccc1)S(=O)(=O)c1ccccc1)N/N=C1\C(=O)Nc2ccccc21` [N-{2-oxo-2-[2-(2-oxo-1,2-dihydro-3H-indol-3-ylidene)hydrazino]ethyl}-N-phenylbenzenesulfonamide], on ratOT-R, the IC50 (usually the point on the concentration scale where inhibition reaches its midpoint) was 300 nM.
As to `C/C(=N\NC(=O)CN(c1ccc(Br)cc1)S(=O)(=O)c1ccccc1)c1ccccc1O` [drawing 134, N-(4-Bromo-phenyl)-N-[1-(2-hydroxy-phenyl)-ethylidenehydrazinocarbonylmethyl]-benzenesulfonamide], the inhibitory constant (Ki) on hV1a [2] is 391 nM.
With `C/C(=N\NC(=O)CN(c1ccc(Br)cc1)S(=O)(=O)c1ccccc1)c1ccccc1O` [drawing 139, N-(4-Bromo-phenyl)-N-[1-(2-hydroxy-phenyl)-ethylidene-hydrazinocarbonylmethyl]-benzenesulfonamide], at hV1a [2], the Ki stood at 800 nM.
In turn, `C/C(=N\NC(=O)CN(c1ccc(Br)cc1)S(=O)(=O)c1ccccc1)c1ccccc1O` [drawing 168, N-(4-bromophenyl)-N-(2-{2-[1-(2-hydroxyphenyl)ethylidene]hydrazino}-2-oxoethyl)benzenesulfonamide] displayed an IC50 against ratOT-R of 48 nM. That is a double-digit nanomolar value.
